Results published in patent US20240092761A1, “QUINAZOLINE COMPOUNDS AND METHODS OF USE” (IAMBIC THERAPEUTICS, INC., priority 2022, published 2024).
Read-outs that look alike come from different tables or passages of the source.

Experiments:
CDK1/Cyclin B1 = CDK1/Cyclin B1 (Homo sapiens (Human), UniProt P06493); assay: CDK1/Cyclin B1 ADP-Glo Kinase Assay; format: biochemical; settings: 80 uM ATP
Procedure, shortened: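 Luminescent ADP-Glo detection of ADP produced over 90 min at room temperature. Enzyme complex 4.917 nM, pre-exposed 30 min to inhibitor; ATP 80 µM (near Km 78.6 µM), substrate 0.75 µM, HEPES pH 7.5, 2% DMSO. Fractional velocity fitted to 4-parameter IC50 equation.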

[1] = biological target: CDK2/Cyclin E1 full length (Homo sapiens (Human), UniProt P24941); assay: CDK2/Cyclin E1 Full Length ADP-Glo Kinase Assay; format: biochemical; settings: 20 uM ATP, read-out: CDK2/ CyclinE1 IC50
Procedure, shortened: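 ADP-Glo luminescence read-out of ADP formed by 0.328 nM wild-type full-length CDK2/Cyclin E1, 90 min at room temperature with 0.75 uM substrate and 20 uM ATP (Km 64.78 uM), after 30 min enzyme–inhibitor pre-incubation; 50 mM HEPES pH 7.5, 2% DMSO. Four-parameter IC50 fit.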

CDK4/Cyclin D1 = CDK4/Cyclin D1 (Homo sapiens (Human), UniProt P11802); assay: CDK4/Cyclin D1 Mobility Shift Assay (MSA); format: biochemical; settings: 0.2 mM ATP, read-out: CDK4/ CyclinD1 MSA IC50
Sequence of CDK4/Cyclin D1 (P11802 whole entry): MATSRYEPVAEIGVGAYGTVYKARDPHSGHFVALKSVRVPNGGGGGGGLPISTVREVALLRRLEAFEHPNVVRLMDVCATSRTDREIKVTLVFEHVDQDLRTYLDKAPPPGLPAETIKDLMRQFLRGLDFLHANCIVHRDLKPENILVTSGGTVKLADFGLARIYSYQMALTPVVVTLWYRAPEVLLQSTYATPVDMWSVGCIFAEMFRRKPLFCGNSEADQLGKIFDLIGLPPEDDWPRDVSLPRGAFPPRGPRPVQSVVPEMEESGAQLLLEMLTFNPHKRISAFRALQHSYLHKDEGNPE
Sequence of CDK4/Cyclin D1 (P24385 whole entry partner): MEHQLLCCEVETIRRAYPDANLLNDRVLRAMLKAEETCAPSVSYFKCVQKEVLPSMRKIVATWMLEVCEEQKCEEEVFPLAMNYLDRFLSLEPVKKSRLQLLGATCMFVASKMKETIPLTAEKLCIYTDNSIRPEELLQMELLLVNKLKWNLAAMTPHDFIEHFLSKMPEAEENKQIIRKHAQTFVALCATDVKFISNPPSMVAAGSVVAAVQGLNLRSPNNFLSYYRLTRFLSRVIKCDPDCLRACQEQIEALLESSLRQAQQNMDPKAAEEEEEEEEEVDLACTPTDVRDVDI
Procedure, shortened: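 Reaction: 2.5 nM enzyme, 0.2 mM ATP, 1.5 µM 5-FAM-Dyrktide, 10 mM MgCl2, 2 mM DTT, 2% DMSO, 50 mM HEPES pH 7.5. Inhibitor was preincubated 30 min at 22 °C, then the reaction ran 180 min before EDTA stop. Microfluidic separation of substrate and product gave % conversion, and IC50 came from a 4-parameter fit.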

CDK6/Cyclin D3 = CDK6/Cyclin D3 (Homo sapiens (Human), UniProt Q00534); assay: CDK6/Cyclin D3 ADP-Glo Kinase Assay; format: biochemical; settings: 100 uM ATP, read-out: CDK6/ CyclinD3 IC50
Sequence of CDK6/Cyclin D3 (Q00534 whole entry): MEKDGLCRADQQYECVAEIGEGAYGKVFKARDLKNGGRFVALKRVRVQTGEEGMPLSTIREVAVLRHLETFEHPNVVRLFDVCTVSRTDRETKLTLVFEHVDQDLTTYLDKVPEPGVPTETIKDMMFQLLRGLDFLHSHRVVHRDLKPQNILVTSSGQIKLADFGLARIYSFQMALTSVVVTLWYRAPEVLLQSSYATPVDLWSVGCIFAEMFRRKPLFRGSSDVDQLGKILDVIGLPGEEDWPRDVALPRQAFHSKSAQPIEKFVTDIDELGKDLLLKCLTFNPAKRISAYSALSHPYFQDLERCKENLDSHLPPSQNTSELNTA
Sequence of CDK6/Cyclin D3 (P30281 whole entry partner): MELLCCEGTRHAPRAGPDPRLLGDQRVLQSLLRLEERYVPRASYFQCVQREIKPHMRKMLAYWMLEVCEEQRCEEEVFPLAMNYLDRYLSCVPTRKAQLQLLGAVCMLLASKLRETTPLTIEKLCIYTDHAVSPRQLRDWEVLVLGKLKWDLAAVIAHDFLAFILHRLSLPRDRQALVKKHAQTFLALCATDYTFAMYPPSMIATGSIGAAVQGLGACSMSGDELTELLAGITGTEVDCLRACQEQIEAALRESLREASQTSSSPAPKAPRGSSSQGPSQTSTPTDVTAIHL
Procedure, shortened: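 Luminescent ADP-Glo read-out of ADP produced, used to fit IC50 (4-parameter equation on fractional velocity against inhibitor concentration). Kinase reaction: enzyme and inhibitor together 30 min, then ATP-containing substrate added for 90 min, all at room temperature.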

MCF-7 cells = assay: Cell Growth Inhibition, MCF-7 (CellTiterGlo, 6 days); format: cell-based; settings: MCF-7, 6-day treatment, CellTiterGlo 2.0
Procedure, shortened: (§1)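 Compounds were run in half-log series, usually 10–10,000 nM, with 500 cells/well of OVCAR-3 or MCF-7 in RPMI plus 10% FBS. After a 6-day culture at 37 °C, viability was read by CellTiterGlo luminescence. Inhibition relative to control was fitted (four-parameter, variable slope) for IC50.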

OVCAR-3 cells = assay: Cell Growth Inhibition, OVCAR-3 (CellTiterGlo, 6 days); format: cell-based; settings: OVCAR-3, 6-day treatment, CellTiterGlo 2.0
Procedure, shortened: as §1

Sequence of CDK1/Cyclin B1 (P06493 whole entry): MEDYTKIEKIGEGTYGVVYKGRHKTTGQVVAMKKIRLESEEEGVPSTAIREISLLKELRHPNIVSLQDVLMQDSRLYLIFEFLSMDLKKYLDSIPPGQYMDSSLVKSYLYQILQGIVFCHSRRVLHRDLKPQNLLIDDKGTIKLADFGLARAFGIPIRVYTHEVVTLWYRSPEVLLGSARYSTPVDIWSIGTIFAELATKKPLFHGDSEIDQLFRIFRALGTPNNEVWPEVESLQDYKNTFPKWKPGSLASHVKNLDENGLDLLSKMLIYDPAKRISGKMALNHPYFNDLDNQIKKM
Sequence of CDK1/Cyclin B1 (P14635 whole entry partner): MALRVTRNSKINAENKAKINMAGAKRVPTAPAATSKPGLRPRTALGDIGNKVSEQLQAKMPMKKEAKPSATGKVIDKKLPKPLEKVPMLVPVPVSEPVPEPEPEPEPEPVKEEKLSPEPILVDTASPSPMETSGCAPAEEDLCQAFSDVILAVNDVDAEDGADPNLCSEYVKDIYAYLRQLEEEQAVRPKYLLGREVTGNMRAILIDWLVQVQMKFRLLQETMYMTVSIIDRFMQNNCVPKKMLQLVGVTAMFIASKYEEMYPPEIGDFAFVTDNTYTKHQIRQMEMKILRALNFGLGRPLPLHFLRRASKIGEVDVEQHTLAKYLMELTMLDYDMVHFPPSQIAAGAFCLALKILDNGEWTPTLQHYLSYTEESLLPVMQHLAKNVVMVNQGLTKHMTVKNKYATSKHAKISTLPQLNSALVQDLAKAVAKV

| SMILES | IC50 (CDK1/Cyclin B1) [nM] | IC50 [1] [nM] | IC50 (CDK4/Cyclin D1) [nM] | IC50 (CDK6/Cyclin D3) [nM] | IC50 (MCF-7 cells; Homo sapiens, MCF7, 144 h) [nM] | IC50 (OVCAR-3 cells; Homo sapiens, 144 h) [nM] | IC50 ([1]; given as number) [nM] | IC50 (MCF-7 cells) [nM] | IC50 (OVCAR-3 cells) [nM] |
| --- | --- | --- | --- | --- | --- | --- | --- | --- | --- |
| CS(=O)(=O)N1CCC(Nc2ncc3cccc(C4CCCC4)c3n2)CC1 [Example 1, 8-cyclopentyl-N-(1-(methylsulfonyl)piperidin-4-yl)quinazolin-2-amine] | < 200 | < 200 | < 200 | < 200 | 200 to 500 | 500 to 2000 |  |  |  |
| CS(=O)(=O)N1CCC(Nc2ncc3cccc(N4CC5(CCNC5)C4)c3n2)CC1 [Example 31, N-(1-(methylsulfonyl)piperidin-4-yl)-8-(2,6-diazaspiro[3.4]octan-2-yl)quinazolin-2-amine] | 200 to 500 | < 200 | < 200 | 200 to 500 | 500 to 2000 | 500 to 2000 |  |  |  |
| COCCN1CC2(C1)CN(c1cccc3cnc(NC4CCN(S(C)(=O)=O)CC4)nc13)C2 [Example 36, 8-(6-(2-methoxyethyl)-2,6-diazaspiro[3.3]heptan-2-yl)-N-(1-(methylsulfonyl)piperidin-4-yl)quinazolin-2-amine] | 500 to 2000 | < 200 | < 200 | 500 to 2000 | > 2000 | > 2000 |  |  |  |
| CCN1CC2(C1)CN(c1ccc(Nc3ncc4cccc(N5CC6(CC(O)C6)C5)c4n3)nc1)C2 [Example 48, 2-(2-((5-(6-ethyl-2,6-diazaspiro[3.3]heptan-2-yl)pyridin-2-yl)amino)quinazolin-8-yl)-2-azaspiro[3.3]heptan-6-ol] | > 2000 | > 2000 | < 200 | < 200 | 500 to 2000 | > 2000 |  |  |  |
| CC(=O)N1CCC2(CCN(c3cc(C(F)F)cc4cnc(NC5CCN(S(C)(=O)=O)CC5)nc34)C2)C1 (stereo not drawn) [Example 50, 1-(7-(6-(difluoromethyl)-2-((1-(methylsulfonyl)piperidin-4-yl)amino)quinazolin-8-yl)-2,7-diazaspiro[4.4]nonan-2-yl)ethan-1-one] | 200 to 500 | < 200 | < 200 | < 200 | 500 to 2000 | > 2000 |  |  |  |
| CC(=O)N1CCC2(CCN(c3cccc4cnc(Nc5ccc(N6CCN(C)CC6)cc5)nc34)C2)C1 (stereo not drawn) [Example 33, 1-(7-(2-((4-(4-methylpiperazin-1-yl)phenyl)amino)quinazolin-8-yl)-2,7-diazaspiro[4.4]nonan-2-yl)ethan-1-one] | > 2000 |  | < 200 | < 200 | > 2000 | > 2000 | 5170 |  |  |
| CS(=O)(=O)N1CCC(Nc2ncc3cccc(N4CCC5(CNC5)C4)c3n2)CC1 [Example 15, N-(1-(methylsulfonyl)piperidin-4-yl)-8-(2,6-diazaspiro[3.4]octan-6-yl)quinazolin-2-amine] | 200 to 500 | < 200 | < 200 | 200 to 500 | 200 to 500 | 500 to 2000 |  |  |  |
| CC(=O)N1CCC2(CCN(c3cccc4cnc(Nc5ccc6c(c5)CCN(C)C6)nc34)C2)C1 (stereo not drawn) [Example 38, 1-(7-(2-((2-methyl-1,2,3,4-tetrahydroisoquinolin-6-yl)amino)quinazolin-8-yl)-2,7-diazaspiro[4.4]nonan-2-yl)ethan-1-one] | > 2000 | 200 to 500 | < 200 | 200 to 500 | 500 to 2000 | 500 to 2000 |  |  |  |
| CN1CCC2(C1)CN(c1cccc3cnc(NC4CCN(S(C)(=O)=O)CC4)nc13)C2 [Example 40, 8-(6-methyl-2,6-diazaspiro[3.4]octan-2-yl)-N-(1-(methylsulfonyl)piperidin-4-yl)quinazolin-2-amine] | 500 to 2000 | 200 to 500 | 200 to 500 | 200 to 500 | > 2000 | > 2000 |  |  |  |
| CS(=O)(=O)N1CCC(Nc2ncc3cccc(N4CCC5(CCC5(F)F)C4)c3n2)CC1 (stereo not drawn) [Example 37, 8-(1,1-difluoro-6-azaspiro[3.4]octan-6-yl)-N-(1-(methylsulfonyl)piperidin-4-yl)quinazolin-2-amine] | 500 to 2000 | < 200 | < 200 | < 200 | > 2000 | > 2000 |  |  |  |
| CS(=O)(=O)N1CCC(Nc2ncc3cccc(N4CCC5(C4)CC(F)(F)C5)c3n2)CC1 [Example 3, 8-(2,2-difluoro-6-azaspiro[3.4]octan-6-yl)-N-(1-(methylsulfonyl)piperidin-4-yl)quinazolin-2-amine] | 500 to 2000 | < 200 | < 200 | < 200 | > 2000 | > 2000 |  |  |  |
| CN1CC2(CCN(c3cccc4cnc(NC5CCN(S(C)(=O)=O)CC5)nc34)C2)C1 [Example 24, 8-(2-methyl-2,6-diazaspiro[3.4]octan-6-yl)-N-(1-(methylsulfonyl)piperidin-4-yl)quinazolin-2-amine] | 200 to 500 | < 200 | < 200 | < 200 | 500 to 2000 | 500 to 2000 |  |  |  |
| CS(=O)(=O)N1CCC(Nc2ncc3cccc(N4CCC5(CCOCC5)C4)c3n2)CC1 [Example 26, N-(1-(methylsulfonyl)piperidin-4-yl)-8-(8-oxa-2-azaspiro[4.5]decan-2-yl)quinazolin-2-amine] | 500 to 2000 | < 200 | < 200 | < 200 | > 2000 | > 2000 |  |  |  |
| CC(=O)N1CCC2(CCN(c3cccc4cnc(Nc5ccc(N6CC7(COC7)C6)cn5)nc34)C2)C1 (stereo not drawn) [Example 41, 1-(7-(2-((5-(2-oxa-6-azaspiro[3.3]heptan-6-yl)pyridin-2-yl)amino)quinazolin-8-yl)-2,7-diazaspiro[4.4]nonan-2-yl)ethan-1-one] | > 2000 | > 2000 | 200 to 500 | 500 to 2000 | > 2000 | > 2000 |  |  |  |
| FC(F)c1cc(N2CCC3(C2)CC3(F)F)c2nc(NC3[C@H]4CNC[C@@H]34)ncc2c1 (stereo partly drawn) [Example 53, 8-(1,1-difluoro-5-azaspiro[2.4]heptan-5-yl)-6-(difluoromethyl)-N-((1R,5S,6s)-3-azabicyclo[3.1.0]hexan-6-yl)quinazolin-2-amine] | > 2000 | > 2000 | < 200 | < 200 |  |  |  | 500 to 2000 | > 2000 |
| CC(=O)N1CCC2(CCN(c3cc(C(F)F)cc4cnc(Nc5ccc(N6CCN(C)CC6)cc5)nc34)C2)C1 (stereo not drawn) [Example 51, 1-(7-(6-(difluoromethyl)-2-((4-(4-methylpiperazin-1-yl)phenyl)amino)quinazolin-8-yl)-2,7-diazaspiro[4.4]nonan-2-yl)ethan-1-one] | > 2000 | 500 to 2000 | < 200 | < 200 | 500 to 2000 | 500 to 2000 |  |  |  |
| CCN1CC2(C1)CN(c1ccc(Nc3ncc4cccc(N5CCC6(CCN(C(C)=O)C6)C5)c4n3)nc1)C2 (stereo not drawn) [Example 46, 1-(7-(2-((5-(6-ethyl-2,6-diazaspiro[3.3]heptan-2-yl)pyridin-2-yl)amino)quinazolin-8-yl)-2,7-diazaspiro[4.4]nonan-2-yl)ethan-1-one] | > 2000 | > 2000 | < 200 | 200 to 500 | 500 to 2000 | > 2000 |  |  |  |
| COCCN1CCC2(C1)CN(c1cccc3cnc(NC4CCN(S(C)(=O)=O)CC4)nc13)C2 [Example 39, 8-(6-(2-methoxyethyl)-2,6-diazaspiro[3.4]octan-2-yl)-N-(1-(methylsulfonyl)piperidin-4-yl)quinazolin-2-amine] | 500 to 2000 | < 200 | < 200 | 500 to 2000 | > 2000 | > 2000 |  |  |  |
